Assay results from PubChem BioAssay AID2060335 (Molecular Pharmacology Branch, DTP, NCI, 2025).

System: DU-145 multicell spheroids with HUVEC/MSC, viability
Experiment: Anticancer human tumor DU-145 cell line growth inhibition [IpAb];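 further: spheroids exposed to agents for seven days before measurement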;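 on viability, T/C: percent of DMSO vehicle control viability so 100% = untreated level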
Details: for IC50: curve of first compound; for viability, T/C: stronger effect = lower value
How it was run: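 Multi-cell spheroids of 60% tumour cells, 25% HUVEC and 15% MSC in ultra-low-attachment U-bottom wells, treated with agents combined with ipatasertib or abemaciclib. Half-log ranges top out near clinical Cmax, or 10 microM when Cmax is unknown.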

[1] = second compound 0.1 µM, first compound 0.00949 µM
[2] = second compound 0.1 µM, first compound 0.03 µM
[3] = second compound 0.1 µM, first compound 0.0949 µM
[4] = second compound 0.1 µM, first compound 0.3 µM
[5] = second compound 0.316 µM, first compound 0.00949 µM
[6] = second compound 0.316 µM, first compound 0.03 µM
[7] = second compound 0.316 µM, first compound 0.0949 µM
[8] = second compound 0.316 µM, first compound 0.3 µM
[9] = second compound 1 µM, first compound 0.00949 µM
[10] = second compound 1 µM, first compound 0.03 µM
[11] = second compound 1 µM, first compound 0.0949 µM
[12] = second compound 1 µM, first compound 0.3 µM
[13] = second compound 3.16 µM, first compound 0.00949 µM
[14] = second compound 3.16 µM, first compound 0.03 µM
[15] = second compound 3.16 µM, first compound 0.0949 µM
[16] = second compound 3.16 µM, first compound 0.3 µM
[17] = second compound 10 µM, first compound 0.00949 µM
[18] = second compound 10 µM, first compound 0.03 µM
[19] = second compound 10 µM, first compound 0.0949 µM
[20] = second compound 10 µM, first compound 0.3 µM

| SMILES | IC50 (second compound 0.1 µM) | IC50 (second compound 0.316 µM) | IC50 (second compound 1 µM) | IC50 (second compound 3.16 µM) | IC50 (second compound 10 µM) | viability, T/C [1] | viability, T/C [2] | viability, T/C [3] | viability, T/C [4] | viability, T/C [5] | viability, T/C [6] | viability, T/C [7] | viability, T/C [8] | viability, T/C [9] | viability, T/C [10] | viability, T/C [11] | viability, T/C [12] | viability, T/C [13] | viability, T/C [14] | viability, T/C [15] | further results |
| --- | --- | --- | --- | --- | --- | --- | --- | --- | --- | --- | --- | --- | --- | --- | --- | --- | --- | --- | --- | --- | --- |
| Cn1cnc2c(F)c(Nc3ccc(Br)cc3Cl)c(C(=O)NOCCO)cc21 + CC(C)NCC(C(=O)N1CCN(c2ncnc3c2C(C)CC3O)CC1)c1ccc(Cl)cc1 | 158 nM | < 9.49 nM | < 9.49 nM | < 9.49 nM | < 9.49 nM | 64.7% | 62.4% | 52.3% | 41.3% | 44.7% | 41.9% | 38.8% | 33.1% | 31.4% | 30.4% | 27.6% | 23% | 18.2% | 17% | 16.5% | viability, T/C (second compound 0.1 µM, first compound 0.949 µM): 46.5%; viability, T/C (second compound 0.1 µM, first compound 3 µM): 34.9%; viability, T/C (second compound 0.316 µM, first compound 0.949 µM): 32.9%; viability, T/C (second compound 0.316 µM, first compound 3 µM): 25%; viability, T/C (second compound 1 µM, first compound 0.949 µM): 21.5%; viability, T/C (second compound 1 µM, first compound 3 µM): 19.2%; viability, T/C [16]: 14.3%; viability, T/C (second compound 3.16 µM, first compound 0.949 µM): 14.5%; viability, T/C (second compound 3.16 µM, first compound 3 µM): 12%; viability, T/C [17]: 16.2%; viability, T/C [18]: 13.7%; viability, T/C [19]: 13.3%; viability, T/C [20]: 11.8%; viability, T/C (second compound 10 µM, first compound 0.949 µM): 11.4%; viability, T/C (second compound 10 µM, first compound 3 µM): 10.4% |
| CC(=O)c1c(C)c2cnc(Nc3ccc(N4CCNCC4)cn3)nc2n(C2CCCC2)c1=O + CC(C)NCC(C(=O)N1CCN(c2ncnc3c2C(C)CC3O)CC1)c1ccc(Cl)cc1 | > 300 nM | > 300 nM | < 0.949 nM | < 0.949 nM | < 0.949 nM | 83.4% | 89.2% | 81.8% | 83.7% | 52.2% | 48.1% | 48.8% | 54.7% | 28.9% | 28.7% | 28.6% | 27.8% | 19.2% | 19.5% | 20.3% | viability, T/C (second compound 0.1 µM, first compound 0.000949 µM): 85.3%; viability, T/C (second compound 0.1 µM, first compound 0.003 µM): 79.7%; viability, T/C (second compound 0.316 µM, first compound 0.000949 µM): 53%; viability, T/C (second compound 0.316 µM, first compound 0.003 µM): 52.1%; viability, T/C (second compound 1 µM, first compound 0.000949 µM): 29.3%; viability, T/C (second compound 1 µM, first compound 0.003 µM): 30.7%; viability, T/C (second compound 3.16 µM, first compound 0.000949 µM): 20.3%; viability, T/C (second compound 3.16 µM, first compound 0.003 µM): 19.7%; viability, T/C [16]: 19.9%; viability, T/C (second compound 10 µM, first compound 0.000949 µM): 16.8%; viability, T/C (second compound 10 µM, first compound 0.003 µM): 15.5%; viability, T/C [17]: 15.5%; viability, T/C [18]: 17.2%; viability, T/C [19]: 15.6%; viability, T/C [20]: 16.1% |
